Earlier results on 67 molecules are cited in publication PMC3720659, “Integrated Analysis of Drug-Induced Gene Expression Profiles Predicts Novel hERG Inhibitors” (PLoS ONE, 2013).

In one data set the test system is hERG current. The settings on record: cited from earlier work.
`C[C@@H]1O[C@@H](O[C@H]2C[C@@H](O)[C@]3(CO)[C@H]4[C@H](O)C[C@]5(C)[C@@H](C6=CC(=O)OC6)CC[C@]5(O)[C@@H]4CC[C@]3(O)C2)[C@H](O)[C@H](O)[C@H]1O` [ouabain]: the “Annotation (hERG Active / Inactive)” value is recorded as “Inactive”.
With `CC(C)NCC1CCc2cc(CO)c([N+](=O)[O-])cc2N1` (stereo not shown) [oxamniquine], the “Annotation (hERG Active / Inactive)” value was “Inactive”.
`COc1cc2c(cc1OC)-c1cc3ccc(OC)c(OC)c3c[n+]1CC2` [palmatine]: the “Annotation (hERG Active / Inactive)” value was “Inactive”.

The same data set, now with this note: hERG inhibition annotation of the drug; the Cell Line (HL60, MCF7, PC3) is the cell line of the expression profile, not of the hERG test; cited from earlier work.
Take `NS(=O)(=O)c1cc2c(cc1C(F)(F)F)NCNS2(=O)=O` [hydroflumethiazide]: the “Annotation (hERG Active / Inactive)” value is on record as “Inactive”.
On to `CC[C@H]1CN2CC[C@H]1C[C@H]2[C@H](O)c1ccnc2ccc(OC)cc12` [hydroquinine], for which the “Annotation (hERG Active / Inactive)” value was “Inactive”.
As for `O=c1[nH]c(=O)n([C@H]2C[C@H](O)[C@@H](CO)O2)cc1I` [idoxuridine], the “Annotation (hERG Active / Inactive)” value is given as “Inactive”.
Turning to `CC(C(O)c1ccc(O)cc1)N1CCC(Cc2ccccc2)CC1` (stereo not shown) [ifenprodil], the “Annotation (hERG Active / Inactive)” value was “Active”.
With `O=P1(NCCCl)OCCCN1CCCl` (stereo not shown) [ifosfamide], the “Annotation (hERG Active / Inactive)” value is reported as “Inactive”.
For `O=C(NCNC(=O)NC1C(=O)NC(=O)N1CO)NC1C(=O)NC(=O)N1CO` (stereo not shown) [imidurea], the “Annotation (hERG Active / Inactive)” value is reported as “Inactive”.
Turning to `CCC(Cc1c(I)cc(I)c(N)c1I)C(=O)O` (stereo not shown) [iopanoic acid], the “Annotation (hERG Active / Inactive)” value is “Inactive”.
As to `COCC(=O)Nc1c(I)c(C(=O)NCC(O)CO)c(I)c(C(=O)N(C)CC(O)CO)c1I` (stereo not shown) [iopromide], the “Annotation (hERG Active / Inactive)” value is on record as “Inactive”.
For the molecule `CNC(=O)c1c(I)c(C(=O)NCC(=O)Nc2c(I)c(C(=O)O)c(I)c(C(=O)NCCO)c2I)c(I)c(N(C)C(C)=O)c1I` [ioxaglic acid], the “Annotation (hERG Active / Inactive)” value is “Inactive”.
In the case of `Clc1ccc(C(Cn2ccnc2)OCc2c(Cl)cccc2Cl)c(Cl)c1` (stereo not shown) [isoconazole], the “Annotation (hERG Active / Inactive)” value is on record as “Inactive”.
With `Cc1cc(NC(=O)C2=C(O)c3ccccc3S(=O)(=O)N2C)no1` [isoxicam], the “Annotation (hERG Active / Inactive)” value was “Inactive”.
As for `CC[C@H](C)[C@H]1O[C@]2(CC[C@@H]1C)C[C@@H]1C[C@@H](C/C=C(\C)[C@@H](O[C@H]3C[C@H](OC)[C@@H](O[C@H]4C[C@H](OC)[C@@H](O)[C@H](C)O4)[C@H](C)O3)[C@@H](C)/C=C/C=C3\CO[C@@H]4[C@H](O)C(C)=C[C@@H](C(=O)O1)[C@]34O)O2` [ivermectin], the “Annotation (hERG Active / Inactive)” value is reported as “Inactive”.
Consider `CCN1C[C@]2(C)CC[C@H](O)[C@]34C1[C@@H](C[C@H]23)[C@@]1(O)C[C@H](OC)[C@H]2C[C@@H]4[C@@H]1[C@H]2O` [karakoline], for which the “Annotation (hERG Active / Inactive)” value is “Inactive”.
On to `CC(C(=O)O)c1cccc(C(=O)c2ccccc2)c1` (stereo not shown) [ketoprofen], for which the “Annotation (hERG Active / Inactive)” value is “Inactive”.
Take `CN1CCC(=C2c3ccccc3CC(=O)c3sccc32)CC1` [ketotifen]: the “Annotation (hERG Active / Inactive)” value is “Inactive”.
Take `c1coc(CNc2ncnc3[nH]cnc23)c1` [kinetin]: the “Annotation (hERG Active / Inactive)” value was “Inactive”.
On to `CC(CCc1ccccc1)NCC(O)c1ccc(O)c(C(N)=O)c1` (stereo not shown) [labetalol], for which the “Annotation (hERG Active / Inactive)” value is listed as “Inactive”.
On to `C#C[C@]1(O)CC[C@H]2[C@@H]3CCC4=CC(=O)CC[C@@H]4[C@H]3CC[C@@]21CC` [levonorgestrel], for which the “Annotation (hERG Active / Inactive)” value is recorded as “Inactive”.
Regarding `CN(C)C(=O)C(CCN1CCC(O)(c2ccc(Cl)cc2)CC1)(c1ccccc1)c1ccccc1` [loperamide], the “Annotation (hERG Active / Inactive)” value is listed as “Active”.
With `CN1CCN(C2=Nc3ccccc3Oc3ccc(Cl)cc32)CC1` [loxapine], the “Annotation (hERG Active / Inactive)” value was “Inactive”.
Consider `COC1=C[C@@H]2C3=C([C@@H]2C1=O)[C@@H](NC(C)=O)CCc1cc(OC)c(OC)c(OC)c13` [lumicolchicine], for which the “Annotation (hERG Active / Inactive)” value is recorded as “Inactive”.
As to `O[C@H]1[C@H]2c3cc4c(cc3CN3CCC(=C[C@@H]1O)[C@H]23)OCO4` [lycorine], the “Annotation (hERG Active / Inactive)” value was “Inactive”.
For the molecule `NCc1ccc(S(N)(=O)=O)cc1` [mafenide], the “Annotation (hERG Active / Inactive)” value is given as “Inactive”.
`CN(C)CCOC(=O)COc1ccc(Cl)cc1` [meclofenoxate]: the “Annotation (hERG Active / Inactive)” value was “Inactive”.
As for `Cc1cccc(Nc2ccccc2C(=O)O)c1C` [mefenamic acid], the “Annotation (hERG Active / Inactive)” value is listed as “Inactive”.
Take `CC1=CC(=O)c2ccccc2C1=O` [menadione]: the “Annotation (hERG Active / Inactive)” value is listed as “Inactive”.
Consider `C[N+]1(C)CCCC(OC(=O)C(O)(c2ccccc2)c2ccccc2)C1` (stereo not shown) [mepenzolate bromide], for which the “Annotation (hERG Active / Inactive)” value is “Inactive”.
Turning to `CNC(C)(C)Cc1ccccc1` [mephentermine], the “Annotation (hERG Active / Inactive)” value is listed as “Inactive”.
In the case of `CCC1(c2ccccc2)NC(=O)N(C)C1=O` (stereo not shown) [mephenytoin], the “Annotation (hERG Active / Inactive)” value was “Inactive”.
`CCC1(c2cccc(O)c2)CCCCN(C)C1` (stereo not shown) [meptazinol]: the “Annotation (hERG Active / Inactive)” value is listed as “Inactive”.
On to `C[C@@H](O)[C@H]1C(=O)N2C(C(=O)O)=C(S[C@@H]3CN[C@H](C(=O)N(C)C)C3)[C@H](C)[C@H]12` [meropenem], for which the “Annotation (hERG Active / Inactive)” value was “Inactive”.
`C#C[C@]1(O)CC[C@H]2[C@@H]3CCc4cc(OC)ccc4[C@H]3CC[C@@]21C` [mestranol]: the “Annotation (hERG Active / Inactive)” value is “Inactive”.
In the case of `CN1C[C@H](CNC(=O)OCc2ccccc2)C[C@@H]2c3cccc4c3c(cn4C)C[C@H]21` [metergoline], the “Annotation (hERG Active / Inactive)” value is “Active”.
Consider `CN(Cc1cnc2nc(N)nc(N)c2n1)c1ccc(C(=O)N[C@@H](CCC(=O)O)C(=O)O)cc1` [methotrexate], for which the “Annotation (hERG Active / Inactive)” value is listed as “Inactive”.
`C[C@H]1C[C@@H]2[C@H]([C@@H](O)C[C@@]3(C)[C@H]2CC[C@]3(O)C(=O)CO)[C@@]2(C)C=CC(=O)C=C12` [methylprednisolone]: the “Annotation (hERG Active / Inactive)” value is recorded as “Inactive”.
As to `CN1CCCC(CC2c3ccccc3Sc3ccccc32)C1` (stereo not shown) [metixene], the “Annotation (hERG Active / Inactive)” value is on record as “Active”.
As for `CCN(CC)CCNC(=O)c1cc(Cl)c(N)cc1OC` [metoclopramide], the “Annotation (hERG Active / Inactive)” value is given as “Inactive”.
As to `COCCc1ccc(OCC(O)CNC(C)C)cc1` (stereo not shown) [metoprolol], the “Annotation (hERG Active / Inactive)” value is on record as “Inactive”.
Consider `CC(C)(C(=O)c1cccnc1)c1cccnc1` [metyrapone], for which the “Annotation (hERG Active / Inactive)” value was “Inactive”.
With `Nc1cc(N2CCCCC2)nc(N)[n+]1[O-]` [minoxidil], the “Annotation (hERG Active / Inactive)” value is recorded as “Inactive”.
Take `Cc1ccsc1/C=C/C1=NCCCN1C` [morantel]: the “Annotation (hERG Active / Inactive)” value was “Inactive”.
As for `O=c1c(O)c(-c2cc(O)c(O)c(O)c2)oc2cc(O)cc(O)c12` [myricetin], the “Annotation (hERG Active / Inactive)” value is listed as “Inactive”.
With `CC(C)(C)NCC(O)COc1cccc2c1CC(O)C(O)C2` (stereo not shown) [nadolol], the “Annotation (hERG Active / Inactive)” value was “Inactive”.
For the molecule `CCOc1ccc2ccccc2c1C(=O)N[C@@H]1C(=O)N2[C@@H]1SC(C)(C)[C@@H]2C(=O)O` [nafcillin], the “Annotation (hERG Active / Inactive)” value is on record as “Inactive”.
For `CN(C/C=C/c1ccccc1)Cc1cccc2ccccc12` [naftifine], the “Annotation (hERG Active / Inactive)” value is recorded as “Inactive”.
For `COc1ccccc1N1CCN(CC(O)COc2cccc3ccccc23)CC1` (stereo not shown) [naftopidil], the “Annotation (hERG Active / Inactive)” value is listed as “Active”.
As to `O=C1CC[C@@]2(O)[C@H]3Cc4ccc(O)c5c4[C@@]2(CCN3CC2CC2)[C@H]1O5` [naltrexone], the “Annotation (hERG Active / Inactive)” value was “Inactive”.
On to `C=C1C2C[C@@]3([C@@H]1O)[C@@H](C[C@@H]2O)[C@@]12C4[C@@H]3C[C@@H]1[C@@](C)(CC[C@@H]2O)CN4CC` [napelline], for which the “Annotation (hERG Active / Inactive)” value is recorded as “Inactive”.
As for `CN(C)C(=O)Oc1cccc([N+](C)(C)C)c1` [neostigmine bromide], the “Annotation (hERG Active / Inactive)” value is given as “Inactive”.
In the case of `O=C(Nc1ccc([N+](=O)[O-])cc1Cl)c1cc(Cl)ccc1O` [niclosamide], the “Annotation (hERG Active / Inactive)” value is “Inactive”.
Turning to `O=C(O)c1cccnc1Nc1cccc(C(F)(F)F)c1` [niflumic acid], the “Annotation (hERG Active / Inactive)” value is listed as “Inactive”.
On to `O=C(N/N=C/c1ccc([N+](=O)[O-])o1)c1ccc(O)cc1` [nifuroxazide], for which the “Annotation (hERG Active / Inactive)” value is given as “Inactive”.
Take `CC1(C)NC(=O)N(c2ccc([N+](=O)[O-])c(C(F)(F)F)c2)C1=O` [nilutamide]: the “Annotation (hERG Active / Inactive)” value was “Inactive”.
On to `CNCCC(Oc1ccccc1OC)c1ccccc1` (stereo not shown) [nisoxetine], for which the “Annotation (hERG Active / Inactive)” value was “Active”.
Regarding `COC(=O)Nc1nc2ccc(C(=O)c3cccs3)cc2[nH]1` [nocodazole], the “Annotation (hERG Active / Inactive)” value is “Inactive”.
Take `CN1Cc2c(N)cccc2C(c2ccccc2)C1` (stereo not shown) [nomifensine]: the “Annotation (hERG Active / Inactive)” value was “Inactive”.
As for `CNCCC=C1c2ccccc2C=Cc2ccccc21` [norcyclobenzaprine], the “Annotation (hERG Active / Inactive)” value was “Inactive”.
As to `CCn1cc(C(=O)O)c(=O)c2cc(F)c(N3CCNCC3)cc21` [norfloxacin], the “Annotation (hERG Active / Inactive)” value is reported as “Inactive”.
With `COc1ccc2[nH]c([S+]([O-])Cc3ncc(C)c(OC)c3C)nc2c1` (stereo not shown) [omeprazole], the “Annotation (hERG Active / Inactive)” value is reported as “Inactive”.
As for `CCN(CC)CC#CCOC(=O)C(O)(c1ccccc1)C1CCCCC1` (stereo not shown) [oxybutynin], the “Annotation (hERG Active / Inactive)” value is given as “Inactive”.
`CCCCC1C(=O)N(c2ccccc2)N(c2ccc(O)cc2)C1=O` (stereo not shown) [oxyphenbutazone]: the “Annotation (hERG Active / Inactive)” value is “Inactive”.
Take `O=C(O)/C=C/c1ccc(Cn2ccnc2)cc1` [ozagrel]: the “Annotation (hERG Active / Inactive)” value was “Inactive”.
As for `CC(=O)O[C@H]1C(=O)[C@@]2(C)[C@H]([C@H](OC(=O)c3ccccc3)[C@]3(O)C[C@H](OC(=O)[C@H](O)[C@@H](NC(=O)c4ccccc4)c4ccccc4)C(C)=C1C3(C)C)[C@]1(OC(C)=O)CO[C@@H]1C[C@@H]2O` [paclitaxel], the “Annotation (hERG Active / Inactive)” value is reported as “Inactive”.
`COc1ccc(Cc2nccc3cc(OC)c(OC)cc23)cc1OC` [papaverine]: the “Annotation (hERG Active / Inactive)” value is “Inactive”.
